Measurements as given in patent US20240374552A1, “Compositions and Methods for Preventing or Reducing the Risk of Metabolic Syndrome” (priority 2021, published 2024).

Tested on: High-Fat Diet (HFD) induced obesity model
Experiment: Effectiveness on metabolic syndrome risk factors, high-fat diet-induced obesity model
Conditions: for Body mass index / Cholesterol (%) / Fat free mass / Fat mass / Food consumption (%) / Glucose (%) / Triglycerides (%) / Weight loss (%): reduction, negative = increase
[1] = ED4: HFD, 0.001 mg/Kg daily 2 weeks
[2] = ED5: Normal diet, 0.001 mg/Kg daily 2 weeks
[3] = ED6: HFD, 0.0175 mg/Kg daily 2 weeks
[4] = ED7: Normal diet, 0.0175 mg/Kg daily 2 weeks
[5] = ED8: HFD, 0.175 mg/Kg daily 2 weeks
[6] = ED9: Normal diet, 0.175 mg/Kg daily 2 weeks
[7] = ED10: HFD, 0.18 mg/Kg daily 2 weeks
[8] = ED11: Normal diet, 0.18 mg/Kg daily 2 weeks
[9] = ED12: HFD, 0.1999 mg/Kg daily 2 weeks
[10] = ED13: Normal diet, 0.1999 mg/Kg daily 2 weeks
[11] = EH4: HFD, 0.20 mg/Kg daily 2 weeks, purity min 95%
[12] = EH5: Normal diet, 0.20 mg/Kg daily 2 weeks, purity min 95%
[13] = EH6: HFD, 0.76 mg/Kg daily 2 weeks, purity min 95%
[14] = EH7: Normal diet, 0.76 mg/Kg daily 2 weeks, purity min 95%
[15] = EH8: HFD, 1.75 mg/Kg daily 2 weeks, purity min 95%
[16] = EH9: Normal diet, 1.75 mg/Kg daily 2 weeks, purity min 95%
[17] = EH10: HFD, 5.50 mg/Kg daily 2 weeks, purity min 95%
[18] = EH11: Normal diet, 5.50 mg/Kg daily 2 weeks, purity min 95%
[19] = EH12: HFD, 25.00 mg/Kg daily 2 weeks, purity min 95%
[20] = EH13: Normal diet, 25.00 mg/Kg daily 2 weeks, purity min 95%
[21] = EH14: HFD, 55.50 mg/Kg daily 2 weeks, purity min 95%
[22] = EH15: Normal diet, 55.50 mg/Kg daily 2 weeks, purity min 95%
[23] = doses 0.001 mg/Kg to about 0.1999 mg/Kg
[24] = doses 0.20 mg/Kg to about 1.75 mg/Kg

Description: Animal studies in high-fat diet-induced obesity model in a total 75 male C57BL/6/CIEABR mice 6 to 7 weeks of age.
The test system is based on the High-Fat Diet (HFD) induced obesity model.
During the quarantine period (10 days), all animals were given rodent food “PicoLab Mouse Diet 5058” food, later, they were given high fat food “Tso's High Fat Diet With Butter Fat” or “PicoLab Mouse Diet 5058” food, according to the assignment of the type of diet and treatment that each animal should consume (See table 3 and table 4).
At the end of the induction period, the administration of the different treatments began. The test product, vehicle, and controls were administered daily for two weeks. Administration was orally using curved stainless steel gastric tubes (18 G×1.5) previously sanitized; administration was performed at 11:00±1 h.
For each treatment, different parameters were quantified to determine their decrease regarding the treatment applied to each group: weight loss (%), feed consumption (%), fat free mass (g), fat mass (g), body mass index, glucose (%), cholesterol (%) and triglycerides (%).

SMILES: CC(C)(C)c1cc(C=C(C#N)C#N)cc(C(C)(C)C)c1O [tyrphostin AG17, Tyrphostin AG17]
- Body mass index [1]: 1.04
- Cholesterol (%) [1]: −0.03%
- Fat free mass [1]: -2.69 g
- Fat mass [1]: -0.54 g
- Food consumption (%) [1]: −4.21%
- Glucose (%) [1]: 0.75%
- Triglycerides (%) [1]: 4.35%
- Weight loss (%) [1]: 3.17%
- Body mass index [2]: 1.69
- Cholesterol (%) [2]: 0.10%
- Fat free mass [2]: -4.02 g
- Fat mass [2]: 1.28 g
- Food consumption (%) [2]: 1.05%
- Glucose (%) [2]: 1.33%
- Triglycerides (%) [2]: 7.83%
- Weight loss (%) [2]: 4.01%
- Body mass index [3]: 2.03
- Cholesterol (%) [3]: 0.04%
- Fat free mass [3]: 1.22 g
- Fat mass [3]: -0.31 g
- Food consumption (%) [3]: 13.04%
- Glucose (%) [3]: 0.92%
- Triglycerides (%) [3]: 17.39%
- Weight loss (%) [3]: 6.19%
- Body mass index [4]: 2.73
- Cholesterol (%) [4]: 0.44%
- Fat free mass [4]: 3.21 g
- Fat mass [4]: 2.59 g
- Food consumption (%) [4]: 17.39%
- Glucose (%) [4]: 1.24%
- Triglycerides (%) [4]: 20.00%
- Weight loss (%) [4]: 8.40%
- Body mass index [5]: 4.41
- Cholesterol (%) [5]: 0.65%
- Fat free mass [5]: 2.34 g
- Fat mass [5]: 1.28 g
- Food consumption (%) [5]: 25.00%
- Glucose (%) [5]: 1.36%
- Triglycerides (%) [5]: 24.35%
- Weight loss (%) [5]: 17.16%
- Body mass index [6]: 4.30
- Cholesterol (%) [6]: 1.30%
- Fat free mass [6]: 3.98 g
- Fat mass [6]: 3.56 g
- Food consumption (%) [6]: 20.83%
- Glucose (%) [6]: 1.93%
- Triglycerides (%) [6]: 25.22%
- Weight loss (%) [6]: 22.13%
- Body mass index [7]: 3.30
- Cholesterol (%) [7]: 1.10%
- Fat free mass [7]: 3.32 g
- Fat mass [7]: -0.10 g
- Food consumption (%) [7]: 21.74%
- Glucose (%) [7]: 1.49%
- Triglycerides (%) [7]: 32.17%
- Weight loss (%) [7]: 16.56%
- Body mass index [8]: 4.22
- Cholesterol (%) [8]: 1.27%
- Fat free mass [8]: 5.11 g
- Fat mass [8]: 4.92 g
- Food consumption (%) [8]: 22.92%
- Glucose (%) [8]: 2.31%
- Triglycerides (%) [8]: 29.57%
- Weight loss (%) [8]: 20.88%
- Body mass index [9]: 3.35
- Cholesterol (%) [9]: 0.94%
- Fat free mass [9]: 3.41 g
- Fat mass [9]: 0.36 g
- Food consumption (%) [9]: 22.27%
- Glucose (%) [9]: 1.40%
- Triglycerides (%) [9]: 30.54%
- Weight loss (%) [9]: 16.24%
- Body mass index [10]: 3.91
- Cholesterol (%) [10]: 2.44%
- Fat free mass [10]: 5.39 g
- Fat mass [10]: 6.02 g
- Food consumption (%) [10]: 23.11%
- Glucose (%) [10]: 2.11%
- Triglycerides (%) [10]: 30.43%
- Weight loss (%) [10]: 18.21%
- Body mass index [11]: 3.34
- Cholesterol (%) [11]: 1.13%
- Fat free mass [11]: 3.44 g
- Fat mass [11]: 0.39 g
- Food consumption (%) [11]: 18.18%
- Glucose (%) [11]: 1.43%
- Triglycerides (%) [11]: 31.02%
- Weight loss (%) [11]: 20.88%
- Body mass index [12]: 4.05
- Cholesterol (%) [12]: 2.48%
- Fat free mass [12]: 4.92 g
- Fat mass [12]: 5.99 g
- Food consumption (%) [12]: 22.07%
- Glucose (%) [12]: 2.15%
- Triglycerides (%) [12]: 30.75%
- Weight loss (%) [12]: 20.97%
- Body mass index [13]: 2.23
- Cholesterol (%) [13]: 1.49%
- Fat free mass [13]: 2.39 g
- Fat mass [13]: 1.21 g
- Food consumption (%) [13]: 23.81%
- Glucose (%) [13]: 2.05%
- Triglycerides (%) [13]: 33.12%
- Weight loss (%) [13]: 14.92%
- Body mass index [14]: 3.43
- Cholesterol (%) [14]: 3.38%
- Fat free mass [14]: 3.94 g
- Fat mass [14]: 7.52 g
- Food consumption (%) [14]: 30.10%
- Glucose (%) [14]: 2.04%
- Triglycerides (%) [14]: 31.74%
- Weight loss (%) [14]: 17.21%
- Body mass index [15]: 2.50
- Cholesterol (%) [15]: 2.02%
- Fat free mass [15]: -0.12 g
- Fat mass [15]: 1.05 g
- Food consumption (%) [15]: 33.11%
- Glucose (%) [15]: 2.19%
- Triglycerides (%) [15]: 33.45%
- Weight loss (%) [15]: 18.14%
- Body mass index [16]: 3.40
- Cholesterol (%) [16]: 3.43%
- Fat free mass [16]: 1.04 g
- Fat mass [16]: 6.98 g
- Food consumption (%) [16]: 35.18%
- Glucose (%) [16]: 2.43%
- Triglycerides (%) [16]: 32.42%
- Weight loss (%) [16]: 13.88%
- Body mass index [17]: 3.30
- Cholesterol (%) [17]: 2.36%
- Fat free mass [17]: -0.04 g
- Fat mass [17]: 1.28 g
- Food consumption (%) [17]: 38.09%
- Glucose (%) [17]: 3.11%
- Triglycerides (%) [17]: 34.17%
- Weight loss (%) [17]: 7.83%
- Body mass index [18]: 4.22
- Cholesterol (%) [18]: 3.44%
- Fat free mass [18]: 0.42 g
- Fat mass [18]: 5.41 g
- Food consumption (%) [18]: 47.82%
- Glucose (%) [18]: 2.03%
- Triglycerides (%) [18]: 32.56%
- Weight loss (%) [18]: 8.87%
- Body mass index [19]: 3.35
- Cholesterol (%) [19]: 2.49%
- Fat free mass [19]: -0.13 g
- Fat mass [19]: 1.20 g
- Food consumption (%) [19]: 37.27%
- Glucose (%) [19]: 4.20%
- Triglycerides (%) [19]: 37.21%
- Weight loss (%) [19]: 9.27%
- Body mass index [20]: 3.91
- Cholesterol (%) [20]: 3.45%
- Fat free mass [20]: -0.10 g
- Fat mass [20]: 5.58 g
- Food consumption (%) [20]: 40.91%
- Glucose (%) [20]: 2.10%
- Triglycerides (%) [20]: 32.45%
- Weight loss (%) [20]: 7.30%
- Body mass index [21]: 2.54
- Cholesterol (%) [21]: 2.33%
- Fat free mass [21]: -0.12 g
- Fat mass [21]: 1.06 g
- Food consumption (%) [21]: 33.12%
- Glucose (%) [21]: 4.38%
- Triglycerides (%) [21]: 37.84%
- Weight loss (%) [21]: 3.49%
- Body mass index [22]: 2.99
- Cholesterol (%) [22]: 3.58%
- Fat free mass [22]: -0.09 g
- Fat mass [22]: 5.01 g
- Food consumption (%) [22]: 41.37%
- Glucose (%) [22]: 1.91%
- Triglycerides (%) [22]: 33.32%
- Weight loss (%) [22]: 4.44%
- Concentration of triglycerides [23]: considerable decrease
- Levels of HDL and glucose [23]: maintaining the levels of HDL and glucose
- Liver damage or toxic effects [23]: low presence of liver damage or toxic effects
- Weight [23]: considerable decrease
- Concentration of triglycerides [24]: decrease
- Glucose levels [24]: maintained
- HDL levels [24]: reduced
- Weight [24]: decrease
- Effect on the liver and toxic effects (doses 0.20 mg/Kg to about 1.75 mg/Kg, high purity tyrphostin): reduced the effect on the hepatic liver as well as the toxic effects
